Counter-ions that a name gives are not always drawn.

The subject of the first test is HT29 cells. Put plainly: Necroptosis inhibition in HT29 cell assay (TNF-α/Smac mimetic/z-VAD induced, cell viability). The test is classed as cell-based. The following applies: Homo sapiens, HT-29, 1 h pre-treatment with compound, then TNF-α 40 ng/mL + Smac mimetic 100 nM + z-VAD 20 μM for 48 hours. On the procedure: 1. Compounds Tested for Necroptosis Inhibition Activities in HT29 Cell Assay
For this assay, HT29 cells were added to 96-well plates and then were pre-treated with 10 μM of the test compound for one hour. Then the cells were treated with tumor necrosis factor alpha (TNF-α, 40 ng/mL), Smacmimetic (cIAP inhibitor) (100 nM) and z-VAD (capase inhibitor, from calbiochem) (20 μM) for 48 hours, and the viability of cells was quantified. DMSO pretreatment group was used as negative controls, Nec-1 (known necroptosis inhibitor, from Biomol) pretreatment group was used as positive controls.
On to `O=C(Nc1nc2ccc(-c3cnc4ccn(C(=O)OC5CCOCC5)c4c3)cc2s1)C1CC1` [Compound C5, tetrahydropyran-4-yl 6-[2-(cyclopropanecarbonylamino)-1,3-benzothiazol-6-yl]pyrrolo[3,2-b]pyridine-1-carboxylate], for which the IC50 came out at 5.6 nM. `CNC(=O)Nc1nc2ccc(-c3cnc4scc(C(=O)NC5CCCCC5)c4c3)cc2s1` [Compound C20, N-cyclohexyl-5-[2-(methylcarbamoylamino)-1,3-benzothiazol-6-yl]thieno[2,3-b]pyridine-3-carboxamide]: the IC50 was found to be 1.6 nM. Same read-out and setting: as for `CNC(=O)Nc1nc2ccc(-c3cnc4ccn(C(=O)OC5CCOCC5)c4c3)cc2s1` [Compound C7, tetrahydropyran-4-yl 6-[2-(methylcarbamoylamino)-1,3-benzothiazol-6-yl]pyrrolo[3,2-b]pyridine-1-carboxylate], the figure is 32 nM. On the same count and under the same terms, as for `CCC(CC)NC(=O)c1nsc2ncc(-c3ccc4nc(NC(=O)C5CC5)sc4c3)cc12` [Compound C31, 5-[2-(cyclopropanecarbonylamino)-1,3-benzothiazol-6-yl]-N-(1-ethylpropyl)isothiazolo[5,4-b]pyridine-3-carboxamide], the figure is 11 nM; as for `O=C(NC1CCOCC1)c1n[nH]c2ncc(-c3ccc4nc(NC(=O)C5CC5)sc4c3)cc12` [Compound C10, 5-[2-(cyclopropanecarbonylamino)-1,3-benzothiazol-6-yl]-N-tetrahydropyran-4-yl-1H-pyrazolo[3,4-b]pyridine-3-carboxamide], 12000 nM. `CCOC(=O)Nc1nc2ccc(-c3cnc4ccn(C(=O)OC5CCCCC5)c4c3)cc2s1` [Compound C34, cyclohexyl 6-[2-(ethoxycarbonylamino)-1,3-benzothiazol-6-yl]pyrrolo[3,2-b]pyridine-1-carboxylate]: the IC50 amounted to 150 nM.

For the compound `CC(=O)Nc1nc2ccc(-c3cnc4scc(C(=O)NC5CCCCC5)c4c3)cc2s1` [Compound C19, 5-(2-acetamido-1,3-benzothiazol-6-yl)-N-cyclohexyl-thieno[2,3-b]pyridine-3-carboxamide], the IC50 turned out to be 11 nM. Still for that read-out and setting: as for `CNC(=O)Nc1nc2ccc(-c3cnc4ccn(C(=O)OC5CCCCC5)c4c3)cc2s1` [Compound C16, cyclohexyl 6-[2-(methylcarbamoylamino)-1,3-benzothiazol-6-yl]pyrrolo[3,2-b]pyridine-1-carboxylate], the figure is 25 nM. Still for that read-out and setting: as for `O=C(NC1CCCCC1)c1csc2ncc(-c3ccc4nc(NC(=O)C5CC5)cn4c3)cc12` [Compound C41, N-cyclohexyl-5-[2-(cyclopropanecarbonylamino)imidazo[1,2-a]pyridin-6-yl]thieno[2,3-b]pyridine-3-carboxamide], the figure is 2 nM; as for `CNC(=O)Nc1nc2ccc(-c3cnc4snc(C(=O)NC5CCCCC5)c4c3)cc2s1` [Compound C27, N-cyclohexyl-5-[2-(methylcarbamoylamino)-1,3-benzothiazol-6-yl]isothiazolo[5,4-b]pyridine-3-carboxamide], 33 nM. `CCOC(=O)Nc1nc2ccc(-c3cnc4snc(C(=O)NC5CCCCC5)c4c3)cc2s1` [Compound C29, ethyl N-[6-[3-(cyclohexylcarbamoyl)isothiazolo[5,4-b]pyridin-5-yl]-1,3-benzothiazol-2-yl]carbamate]: the IC50 turned out to be 3.1 nM. Same read-out and setting: as for `O=C(Nc1nc2ccc(-c3cnc4cnn(C(=O)OC5CCOCC5)c4c3)cc2s1)C1CC1` [Compound C11, tetrahydropyran-4-yl 6-[2-(cyclopropanecarbonylamino)-1,3-benzothiazol-6-yl]pyrazolo[4,3-b]pyridine-1-carboxylate], the figure is 4100 nM; as for `CC(=O)Nc1nc2ccc(-c3cnc4ncn(C(=O)OC5CCCCC5)c4c3)cc2s1` [Compound C2, cyclohexyl 6-(2-acetamido-1,3-benzothiazol-6-yl)imidazo[4,5-b]pyridine-1-carboxylate], 11000 nM.

With `O=C(NC1CCOCC1)c1nsc2ncc(-c3ccc4nc(NC(=O)C5CC5)cn4c3)cc12` [Compound C35, 5-[2-(cyclopropanecarbonylamino)imidazo[1,2-a]pyridin-6-yl]-N-tetrahydropyran-4-yl-isothiazolo[5,4-b]pyridine-3-carboxamide], the 50% inhibitory concentration (IC50) is 160 nM. The same measure, in the same setting: as for `O=C(Nc1nc2ccc(-c3cnc4ccn(C(=O)OC5CCCCC5)c4c3)cc2s1)C1CC1` [Compound C15], the figure is 7 nM; as for `CCC(=O)Nc1nc2ccc(-c3cnc4ccn(C(=O)OC5CCCCC5)c4c3)cc2s1` [Compound C26, cyclohexyl 6-[2-(propanoylamino)-1,3-benzothiazol-6-yl]pyrrolo[3,2-b]pyridine-1-carboxylate], 50 nM; as for `O=C(NC1CCOCC1)c1cccc2ncc(-c3ccc4nc(NC(=O)C5CC5)sc4c3)cc12` [Compound C13, 3-[2-(cyclopropanecarbonylamino)-1,3-benzothiazol-6-yl]-N-tetrahydropyran-4-yl-quinoline-5-carboxamide], 13000 nM. On the same count and under the same terms, as for `O=C(NC1CCC(F)(F)CC1)c1csc2ncc(-c3ccc4nc(NC(=O)C5CC5)sc4c3)cc12` [Compound C38, 5-[2-(cyclopropanecarbonylamino)-1,3-benzothiazol-6-yl]-N-(4,4-difluorocyclohexyl)thieno[2,3-b]pyridine-3-carboxamide], the figure is 1.8 nM; as for `O=C(Nc1nc2ccc(-c3cnc4ccn(C(=O)CC5CCCCC5)c4c3)cc2s1)C1CC1` [Compound C25, N-[6-[1-(2-cyclohexylacetyl)pyrrolo[3,2-b]pyridin-6-yl]-1,3-benzothiazol-2-yl]cyclopropanecarboxamide], 29 nM. Still for that read-out and setting: as for `O=C(Nc1cn2cc(-c3cnc4ccn(C(=O)OC5CCCCC5)c4c3)ccc2n1)C1CC1` [Compound C17], the figure is 16 nM. As for `CCC(CC)NC(=O)c1csc2ncc(-c3ccc4nc(NC(=O)C5CC5)sc4c3)cc12` [Compound C37, 5-[2-(cyclopropanecarbonylamino)-1,3-benzothiazol-6-yl]-N-(1-ethylpropyl)thieno[2,3-b]pyridine-3-carboxamide], the half-maximal inhibitory concentration (IC50) turned out to be 3.2 nM. The same measure, in the same setting: as for `O=C(NC1CCOCC1)c1c[nH]c2ncc(-c3ccc4nc(NC(=O)C5CC5)sc4c3)cc12` [Compound C9, 5-[2-(cyclopropanecarbonylamino)-1,3-benzothiazol-6-yl]-N-tetrahydropyran-4-yl-1H-pyrrolo[2,3-b]pyridine-3-carboxamide], the figure is 5200 nM. The same measure, in the same setting: as for `O=C(NC1CCOCC1)c1csc2ncc(-c3ccc4nc(NC(=O)C5CC5)cn4c3)cc12` [Compound C40, 5-[2-(cyclopropanecarbonylamino)imidazo[1,2-a]pyridin-6-yl]-N-tetrahydropyran-4-yl-thieno[2,3-b]pyridine-3-carboxamide], the figure is 60 nM. The same measure, in the same setting: as for `CNCC(C)NC(=O)c1csc2ncc(-c3ccc4nc(NC(=O)C5CC5)sc4c3)cc12` (stereo not drawn) [Compound C28, 5-[2-(cyclopropanecarbonylamino)-1,3-benzothiazol-6-yl]-N-[1-methyl-2-(methylamino)ethyl]thieno[2,3-b]pyridine-3-carboxamide], the figure is 380 nM. Regarding `O=C(Nc1nc2ccc(-c3cnc4ccn(C(=O)NC5CCOCC5)c4c3)cc2s1)C1CC1` [Compound C21, 6-[2-(cyclopropanecarbonylamino)-1,3-benzothiazol-6-yl]-N-tetrahydropyran-4-yl-pyrrolo[3,2-b]pyridine-1-carboxamide], the half-maximal inhibitory concentration (IC50) is 22 nM. On the same count and under the same terms, as for `CNCC(C)NC(=O)c1nsc2ncc(-c3ccc4nc(NC(=O)C5CC5)sc4c3)cc12` (stereo not drawn) [Compound C32, 5-[2-(cyclopropanecarbonylamino)-1,3-benzothiazol-6-yl]-N-[1-methyl-2-(methylamino)ethyl]isothiazolo[5,4-b]pyridine-3-carboxamide], the figure is 1400 nM; as for `CNCC(C)OC(=O)n1ccc2ncc(-c3ccc4nc(NC(=O)C5CC5)sc4c3)cc21` (stereo not drawn) [Compound C36, [1-methyl-2-(methylamino)ethyl] 6-[2-(cyclopropanecarbonylamino)-1,3-benzothiazol-6-yl]pyrrolo[3,2-b]pyridine-1-carboxylate, hydrochloride salt], 16000 nM; as for `CC(=O)Nc1nc2ccc(-c3cnc4snc(C(=O)NC5CCCCC5)c4c3)cc2s1` [Compound C22, 5-(2-acetamido-1,3-benzothiazol-6-yl)-N-cyclohexyl-isothiazolo[5,4-b]pyridine-3-carboxamide], 35 nM.

As for `CCOC(=O)Nc1nc2ccc(-c3cnc4scc(C(=O)NC5CCCCC5)c4c3)cc2s1` [Compound C39, ethyl N-[6-[3-(cyclohexylcarbamoyl)thieno[2,3-b]pyridin-5-yl]-1,3-benzothiazol-2-yl]carbamate], the IC50 was determined as 48 nM. Still for that read-out and setting: as for `CC(=O)Nc1nc2ccc(-c3cnc4ccn(C(=O)OC5CCCCC5)c4c3)cc2s1` [Compound C1, cyclohexyl 6-(2-acetamido-1,3-benzothiazol-6-yl)pyrrolo[3,2-b]pyridine-1-carboxylate], the figure is 43 nM; as for `CCC(CC)OC(=O)n1ccc2ncc(-c3ccc4nc(NC(=O)C5CC5)sc4c3)cc21` [Compound C24, 1-ethylpropyl 6-[2-(cyclopropanecarbonylamino)-1,3-benzothiazol-6-yl]pyrrolo[3,2-b]pyridine-1-carboxylate], 33 nM.

A further test concerns L929 mouse skin fibroblast cells. Put plainly: Necroptosis inhibition in L929 cell assay (TNF-α/z-VAD induced, cell viability by ATP levels). The following applies: Mus musculus, 1 h pre-treatment with compound, then TNF-α 40 ng/mL + z-VAD 20 μM for 48 hours. It counts as cell-based. On the procedure: 2. Compounds Tested for Necroptosis Inhibition Activities in L929 Cell Assay
Mouse L929 mouse skin fibroblast cells were added to 96-well plates and then were pre-treated with 10 μM of the test compound for one hour. Then the cells were treated with TNF-α (40 ng/mL, lab-made) and z-VAD (capase inhibitor, from calbiochem) (20 μM) for 48 hours, and the viability of cells was quantified by detecting adenosine triphosphate (ATP) levels. DMSO pretreatment group was used as negative controls, Nec-1 (known necroptosis inhibitor, from Biomol) pretreatment group was used as positive controls.
In the case of `O=C(Nc1nc2ccc(-c3cnc4ccn(C(=O)OC5CCOCC5)c4c3)cc2s1)C1CC1` [Compound C5, tetrahydropyran-4-yl 6-[2-(cyclopropanecarbonylamino)-1,3-benzothiazol-6-yl]pyrrolo[3,2-b]pyridine-1-carboxylate], the IC50 worked out at 17 nM. `CNC(=O)Nc1nc2ccc(-c3cnc4scc(C(=O)NC5CCCCC5)c4c3)cc2s1` [Compound C20, N-cyclohexyl-5-[2-(methylcarbamoylamino)-1,3-benzothiazol-6-yl]thieno[2,3-b]pyridine-3-carboxamide]: the 50% inhibitory concentration (IC50) was determined as 0.6 nM.

One may read the IC50 as the concentration needed to halve the response being measured.

Values taken from patent publication US12421226B2, “Heteroaryl compounds as necrosis inhibitors, composition and method using the same” (Accro Bioscience (HK), priority 2019, dated 2025).
